Consider 1 compound from patent publication US20040142881A1, “Novel immunosuppressive agent” (TOYO SUISAN KAISHA, LTD., priority 2001, published 2004).

Structures are written as SMILES.

The assay concerns responder cells (T lymphocytes). The assay is described as follows: Mixed lymphocytes reaction ([3H]-thymidine uptake of responder cells). The format is cell-based, human. The note with it: test substance at 2.5, 5, 10, 25 μg/mL (Nos. 1-6) or 5, 10, 25 μg/mL (Nos. 7-12); 4 days culture with mitomycin C-treated stimulator cells; FIGS. 1 and 2. On the procedure: Mixed lymphocytes reaction
Lymphocytes serving as stimulator cells and responder cells were prepared from blood taken from individual healthy persons.
The responder cells were further separated from the lymphocyte cells to give T lymphocytes alone.
No treatment was applied to the responder cells. 10^6/mL of the stimulator cells were treated with 10 μg/mL of mitomycin C to stop the cell growth.
Subsequently, the responder cells were inoculated in a 96-well plate, at a rate of 10^5 cells per well, and then test substances (compound Nos. 1 to 12 listed in Table 1 below) were added to a predetermined concentration. The reaction mixture was cultured at 37° C. for one hour. Thereafter, the stimulator cells were added at a rate of 10^5 cells per well. The mixture was cultured in a CO2 incubator at 37° C. for 4 days. After the incubation, the proliferation ability of the responder cells was quantified as follows. First, [^3H]-thymidine was added to the responder cells and incorporated into the nucleus of the cells by culturing the cells for 16 hours. Then, the amount of [^3H]-thymidine uptake into the cells was determined by a scintillation counter.

As for `CCCCCCCCCCCCCCCCCC(=O)OCC(CO[C@@H]1O[C@H](CS(=O)(=O)[O-])[C@H](O)[C@H](O)[C@H]1O)OC(=O)CCCCCCCCCCCCCCCCC.[Na+]` (stereo partly drawn) [compound No. 12, 3-0-(6-deoxy-6-sulfo-β-D-galactopyranosyl)-1,2-di-0-stearoyl-glycerol sodium salt], the “immunosuppressive activity (amount of [3H]-thymidine uptake; the lower the uptake, the higher the activity)” value is “not confirmed”.
